The values that follow come from patent US10745363B2 (NORATECH PHARMACEUTICALS, INC., priority 2016, dated 2020).

A short description of data set [1]: Determination of hygroscopicity (water absorption in open weighing bottle, artificial climate chamber). The format is physicochemical. The note with it: 25±1° C., relative humidity 43.5±2%; for Water absorption, %: open weighing bottle, disodium salt. As to the method: 1. Take a dry stuffed glass weighing bottle (outer diameter 50 mm, height 15 mm) in the artificial climate chamber (set temperature is 25±1° C., relative humidity is 43.5±2%) and weight it (m1).
2. Take the appropriate amount of the crystalline form in the present invention, and place it in the abovementioned weighing bottle and lay it inside the weighing bottle. The thickness of the test sample is generally about 1 mm. Weight the sample (m2).
3. Uncover the weighing bottle and place it with the bottle cap under constant temperature and humidity (set temperature is 25±1° C., relative humidity is 43.5±2%).
4. Put the cap back on the weighing bottle before weighing, and then weight it (m3). The water absorption percentage for each time point is calculated by the formula=(m3−m2)/(m2−m1)×100%.

For data set [2] the following is noted: cited from earlier work.

Each structure is given as a SMILES string. Structures can show the parent of a compound that is named as a salt.

As for `CCCCC(=O)N(Cc1ccc(-c2ccccc2-c2nnn[nH]2)cc1)[C@H](C(=O)O)C(C)C` [Crystalline form A, valsartan disodium salt], the “Water absorption, %” value in data set [1] (2 h, listed as A) turned out to be 1.6%; in data set [1] (4 h, listed as A) it was 2.0%; in data set [1] (24 h, listed as A) it was 2.4%. Moreover, the water absorption in data set [1] (3 hours, open container) stood at 2.6%.

Regarding `CCCCC(=O)N(Cc1ccc(-c2ccccc2-c2nnn[nH]2)cc1)[C@H](C(=O)O)C(C)C` [Crystalline form B, valsartan disodium salt], the “Water absorption, %” value is reported as 1.9% in data set [1] (2 h, listed as B); 2.3% in data set [1] (4 h, listed as B); 3.0% in data set [1] (24 h, listed as B).

Consider `CCCCC(=O)N(Cc1ccc(-c2ccccc2-c2nnn[nH]2)cc1)[C@H](C(=O)O)C(C)C` [Crystalline form D, valsartan disodium salt], for which the “Water absorption, %” value in data set [1] (2 h, listed as D) was found to be 1.3%; in data set [1] (4 h, listed as D), 1.9%; in data set [1] (24 h, listed as D), 2.7%.

For `CCCCC(=O)N(Cc1ccc(-c2ccccc2-c2nnn[nH]2)cc1)[C@H](C(=O)O)C(C)C` [Crystalline form E, valsartan disodium salt], the “Water absorption, %” value in data set [1] (2 h, listed as E) is listed as 2.1%; in data set [1] (4 h, listed as E), 2.9%; in data set [1] (24 h, listed as E), 3.6%.

In the case of `CCCCC(=O)N(Cc1ccc(-c2ccccc2-c2nnn[nH]2)cc1)[C@H](C(=O)O)C(C)C` [Crystalline form F, valsartan disodium salt], the “Water absorption, %” value in data set [1] (2 h, listed as F) amounted to 1.7%; in data set [1] (4 h, listed as F), 2.2%; in data set [1] (24 h, listed as F) it was 2.8%.

As to `CCCCC(=O)N(Cc1ccc(-c2ccccc2-c2nnn[nH]2)cc1)[C@H](C(=O)O)C(C)C` [Crystalline form G, valsartan disodium salt], the “Water absorption, %” value in data set [1] (2 h, listed as G) is recorded as 0.7%; in data set [1] (4 h, listed as G), 1.3%; in data set [1] (24 h, listed as G), 1.5%.

For `CCCCC(=O)N(Cc1ccc(-c2ccccc2-c2nnn[nH]2)cc1)[C@H](C(=O)O)C(C)C` [Crystalline form H, valsartan disodium salt], the “Water absorption, %” value in data set [1] (2 h, listed as H) was determined as 2.0%; in data set [1] (4 h, listed as H), 2.8%; in data set [1] (24 h, listed as H), 4.0%.

In the case of `CCCCC(=O)N(Cc1ccc(-c2ccccc2-c2nnn[nH]2)cc1)[C@H](C(=O)O)C(C)C` [Valsartan sodium salt], the “hygroscopicity (in words)” value in data set [2] (background statement) is recorded as “hygroscopic”.

In the case of `CCCCC(=O)N(Cc1ccc(-c2ccccc2-c2nnn[nH]2)cc1)[C@H](C(=O)O)C(C)C` [valsartan disodium salt], the hygroscopicity result in data set [2] (equilibrated in air, 5.36 mol H2O by elemental analysis (CN01813039.9)) is given as “up to 20%”.
